These results are taken from US8445496B2, “Crystalline forms of 4-[(2,4-dichloro-5-methoxyphenyl)amino]-6-methoxy-7-[3-(4-methyl-1-piperazinyl)propoxy]-3-quinolinecarbonitrile and methods of preparing the same” (Wyeth LLC, priority 2005, dated 2013).

≈ marks a conversion by molar mass, not a printed value. Entries after “also recorded” stand apart in the source; their conditions may differ. A value given as a limit tells only on which side of the number the result lay.

Series [1] is described as follows: Conversion of crystal form on treatment with water. It counts as physicochemical. Particulars: for form conversion in heated water: water at 90° C. or 95° C. Here is the method:
Forms II, III, IV and Form VI can all be transformed into Form I by treatment with water, e.g. by heating in water. The water may be at room temperature. The water may be heated to at least about 90° C., and as high as at least about 95° C.
Form V is the anhydrous form, producing substantially Pattern E in FIGS. 1 and 8 when scanned by XRD, and has the highest transition temperature of all the polymorphic forms, i.e., about 148° C. It is also readily converted to Form I by treatment with heated water. The water is heated to at least about 90° C., and more preferably is heated to at least about 95° C. […] This hydrated form is different from either Form I or V, as shown by the XRD scan in FIG. 4.
FIG. 3. This is a differential scanning calorimeter (DSC) plot and a theromogravimetric analysis (TGA) plot of Form V after suspension in water for two months and ten days at room temperature.

Series [2] in a line: Solubility in water and formulation vehicles.
Series [3] can be described thus: Hygroscopicity by dynamic vapor sorption. It counts as physicochemical. To be noted: 0% to 90% RH, monohydrate. On the procedure:
The hydroscopicity of the anhydrous Form V and the hydrated forms was determined using dyanamic vapor sorption, including the plot for Form I shown in FIG. 2. This was performed under the following conditions. RH was set at 0%, 30%, 52.5%, 75% and 90%, with the sample exposed for 3 hours at each RH for two full cycles.

Series [4] in a line: Solid-state stability on exposure to light, humidity and heat (XRD and HPLC; water loss). It is filed as physicochemical.
Another series can be described thus: physchem. To be noted: Table 4, (batch size 95, 50, 120, 54, 18.5, 550 g).
The mark [5] stands for this setting: Table 4, (batch size 95, 50, 120, 54, 18.5, 550 g), listed as Pattern D.

For the compound `CC(C)O.COc1cc(Nc2c(C#N)cnc3cc(OCCCN4CCN(C)CC4)c(OC)cc23)c(Cl)cc1Cl` [Form III, 4-[(2,4-dichloro-5-methoxyphenyl)amino]-6-methoxy-7-[3-(4-methyl-1-piperazinyl)propoxy]-3-quinolinecarbonitrile monoisopropyl alcoholate], the “form conversion in heated water” value in series [1] is “Converts to “I” in 95 °C”.
Regarding `COc1cc(Nc2c(C#N)cnc3cc(OCCCN4CCN(C)CC4)c(OC)cc23)c(Cl)cc1Cl` [4-[(2,4-dichloro-5-methoxyphenyl)amino]-6-methoxy-7-[3-(4-methyl-1-piperazinyl)propoxy]-3-quinolinecarbonitrile], the “solubility enhancement with about 2% Tween80” value in series [2] (about 2% Tween80) is on record as “about 100 fold”. In addition, the solubility in series [2] (about 2% Tween80, aqueous with cosolvent or surfactant or cyclodextrin, solubility with addition of about 2% Tween80, about 2% Tween80 (detergent)) was 100 to 400 µg/mL (≈ 189 to 754 µM); in series [2] (aqueous with cosolvent or surfactant or cyclodextrin, solubility with addition of about 0.06% acetic acid (in-situ acetate salt vehicle), about 2% Tween80 plus about 0.06% acetic acid), 3000 to 4000 µg/mL; in series [2] (de-ionized water, pH 7.2, water, solubility in de-ionized water, partially ionized, resulting pH 7.2), 1.8 µg/mL (≈ 3.39 µM); in series [2] (pH 8, aqueous buffer, intrinsic (neutral form) solubility, pH 8.0), around 0.06 µg/mL (≈ 0.113 µM); in series [2] (stomach acid, simulated gastric fluid, solubility in stomach acid), above 200000 µg/mL. In series [2] (in-situ acetate salt vehicle), the “solubility enhancement with about 0.06% acetic acid” value is recorded as around 1000 fold.
In the case of `COc1cc(Nc2c(C#N)cnc3cc(OCCCN4CCN(C)CC4)c(OC)cc23)c(Cl)cc1Cl` [Form IV, 4-[(2,4-dichloro-5-methoxyphenyl)amino]-6-methoxy-7-[3-(4-methyl-1-piperazinyl)propoxy]-3-quinolinecarbonitrile], the “form conversion in heated water” value in series [1] (listed as D) is “Converts to “I” in 90 °C”. Moreover, in series [2] (2% Tween80/0.5% MC 0.06% acetic acid, aqueous with cosolvent or surfactant or cyclodextrin, Solubility, Table 4, (batch size 95, 50, 120, 54, 18.5, 550 g)), the solubility amounted to 3500 µg/mL (≈ 6600 µM). Moreover, the concentration in solution in series [2] (2% Tween 80/03% MC, aqueous with cosolvent or surfactant or cyclodextrin, Solubility, Table 4, (batch size 95, 50, 120, 54, 18.5, 550 g)) (solubility) came to 70 µg/mL (≈ 132 µM). Also, in series [2] (setting [5]), the “Solubility, 2% Tween80/0.5% MC 0.06% acetic acid” value is recorded as 2.68 (pH 5.2) mg/mL and the “Solubility, 2% Tween 80/03% MC” value is reported as 0.06 (pH 7.8) mg/mL.
As for `COc1cc(Nc2c(C#N)cnc3cc(OCCCN4CCN(C)CC4)c(OC)cc23)c(Cl)cc1Cl` [Form V, 4-[(2,4-dichloro-5-methoxyphenyl)amino]-6-methoxy-7-[3-(4-methyl-1-piperazinyl)propoxy]-3-quinolinecarbonitrile], the “form change in water at room temperature” value in series [1] (suspended in water at room temperature, 2 months (two months and ten days), DSC, TGA, XRD) is recorded as “converted into a hydrated Form II; also recorded: hydrated to a metastable hydrate crystal form”. Besides, the “form conversion in heated water” value in series [1] was “Converts to “I” in 95 °C”.
Turning to `COc1cc(Nc2c(C#N)cnc3cc(OCCCN4CCN(C)CC4)c(OC)cc23)c(Cl)cc1Cl.O` [Form I, 4-[(2,4-dichloro-5-methoxyphenyl)amino]-6-methoxy-7-[3-(4-methyl-1-piperazinyl)propoxy]-3-quinolinecarbonitrile monohydrate], the hygroscopicity result in series [3] is given as “not hygroscopic; also recorded: non-hydroscopic”. The “loss of water at 0% relative humidity” value in series [4] (0% relative humidity for 10 days) is on record as “does not lose water”. The “stability to humidity (XRD and HPLC)” value in series [4] (75% humidity at 40° C. for 3 months) was “substantially pure and physically unchanged”. For the same compound, the “stability to heat (XRD and HPLC)” value in series [4] (90° C. for 2 weeks) is “substantially pure and physically unchanged”. For the same compound, the “stability to light (XRD and HPLC)” value in series [4] (510 foot-candles (~5490 lux) light for two weeks) is “substantially pure and physically unchanged”. Also, the “loss of water on heating” value in series [4] (heated to 90° C. for over 100 hours) was “does not lose water”. Moreover, the solubility amounted to 4000 µg/mL in “physchem” (aqueous with cosolvent or surfactant or cyclodextrin, 2% Tween80/0.5% MC 0.06% acetic acid) and 1.8 µg/mL in the series “physchem” (pH 7.2, water, Water). Also, the “Solubility, 2% Tween80/0.5% MC 0.06% acetic acid” value in series [2] (Table 4, (batch size 95, 50, 120, 54, 18.5, 550 g), listed as Pattern A, monohydrate) was 4.25 (pH 5.7) mg/mL.
For the compound `CO.COc1cc(Nc2c(C#N)cnc3cc(OCCCN4CCN(C)CC4)c(OC)cc23)c(Cl)cc1Cl` [Form VI, 4-[(2,4-dichloro-5-methoxyphenyl)amino]-6-methoxy-7-[3-(4-methyl-1-piperazinyl)propoxy]-3-quinolinecarbonitrile methanolate], the “form conversion in heated water” value in series [1] is “Converts to “I” in 95 °C”.
Take `COc1cc(Nc2c(C#N)cnc3cc(OCCCN4CCN(C)CC4)c(OC)cc23)c(Cl)cc1Cl` [Form II, 4-[(2,4-dichloro-5-methoxyphenyl)amino]-6-methoxy-7-[3-(4-methyl-1-piperazinyl)propoxy]-3-quinolinecarbonitrile]: the “form conversion in heated water” value in series [1] (listed as B) is “Converts to “I” in 95 °C”.

The solubility is the concentration that dissolves in the medium under given conditions.
